Values of other authors as cited in patent US12263173B2, “PLK1 inhibitor in combination with anti-angiogenics for treating metastatic cancer” (CARDIFF ONCOLOGY, INC., priority 2022, dated 2025).
Like-named read-outs stand apart in the source and are kept apart here. Blank lines part the entries; values can stand above or below the molecule they belong to.

Tests used:
[1] = test system: patients with advanced/metastatic solid tumors; details: reversible
PLK1 = PLK1 (Homo sapiens, UniProt P53350)
[2] = test system: HT29 human colon adenocarcinoma xenografts; details: in combination with irinotecan
[3] = test system: disseminated model of AML
[4] = test system: patients with AML who were treatment naïve yet unsuitable for induction therapy; details: administered intravenously in combination with LDAC
patients with AML = details: in combination with LDAC
[5] = test system: patients with and without prior bevacizumab treatment; details: second line
[6] = bev naïve (without prior bevacizumab)

PLK1, sequence (P53350 whole entry): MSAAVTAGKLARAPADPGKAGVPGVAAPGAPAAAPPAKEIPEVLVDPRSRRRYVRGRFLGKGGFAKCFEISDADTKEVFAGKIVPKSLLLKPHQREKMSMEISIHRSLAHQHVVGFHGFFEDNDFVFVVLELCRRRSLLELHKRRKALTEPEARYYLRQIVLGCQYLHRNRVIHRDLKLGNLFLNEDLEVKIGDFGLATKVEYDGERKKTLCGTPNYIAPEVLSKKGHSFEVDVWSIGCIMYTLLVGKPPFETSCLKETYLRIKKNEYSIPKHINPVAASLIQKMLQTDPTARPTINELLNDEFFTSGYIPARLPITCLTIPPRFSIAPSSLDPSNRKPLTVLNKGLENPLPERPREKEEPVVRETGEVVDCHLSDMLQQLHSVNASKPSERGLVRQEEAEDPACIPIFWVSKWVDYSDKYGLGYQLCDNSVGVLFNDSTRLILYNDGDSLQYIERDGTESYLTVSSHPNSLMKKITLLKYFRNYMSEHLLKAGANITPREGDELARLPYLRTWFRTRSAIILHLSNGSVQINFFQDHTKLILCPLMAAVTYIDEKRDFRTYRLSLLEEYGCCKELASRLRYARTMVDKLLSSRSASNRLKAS

- specificity for PLK1 (PLK1; among a panel of 296 kinases, including other PLK members): high specificity
- potency and specificity for the PLK1 isozyme versus volasertib (PLK1; compared with volasertib (BI6727)): higher degree of potency and specificity
Molecule: CN1CCN(c2ccc(OC(F)(F)F)c(Nc3ncc4c(n3)-c3c(c(C(N)=O)nn3CCO)CC4)c2)CC1 [onvansertib, 1-(2-hydroxyethyl)-8-{[5-(4-methylpiperazin-1-yl)-2-(trifluoromethoxy)phenyl]amino}-4,5-dihydro-1H-pyrazolo[4,3-h]quinazoline-3-carboxamide]
- recovery of hematologic toxicities [1]: ≤ 3 weeks
- inhibition of cell proliferation (AML cell lines): nanomolar concentrations
- xenograft tumor growth (xenograft models; well tolerated doses in mice after oral administration): inhibits xenograft tumor growth
- tumor growth (xenograft models; xenograft models of AML): inhibited
- tumor regression compared to each agent alone [2]: enhanced tumor regression
- survival of animals ([3]; in combination therapy with cytarabine): prolonged survival
- effect on cytarabine antitumor activity ([3]; in combination with cytarabine): significantly increased

Molecule: CC[C@@H]1C(=O)N(C)c2cnc(Nc3ccc(C(=O)N[C@H]4CC[C@H](N5CCN(CC6CC6)CC5)CC4)cc3OC)nc2N1C(C)C [volasertib]
- OS compared with LDAC alone [4]: significant increase in OS
- benefit of the combination (patients with AML): no benefit

Molecule: bev: anti-angiogenics (angiogenesis inhibitor), Avastin
- mOS [5, 6]: 13.9 months
- mPFS [5, 6]: 6.9 months
- mOS ([5]; prior bev): 12.5 months
- mPFS ([5]; prior bev): 6.7 months
